# In article PMC3662962 (Biochemical and biophysical research communications, 2010):
# Molecular target: RsbU phosphatase domain (Mycobacterium tuberculosis, UniProt P9WLZ7)
# Experiment: biochemical
# Chain of RsbU phosphatase domain (P9WLZ7 190-397): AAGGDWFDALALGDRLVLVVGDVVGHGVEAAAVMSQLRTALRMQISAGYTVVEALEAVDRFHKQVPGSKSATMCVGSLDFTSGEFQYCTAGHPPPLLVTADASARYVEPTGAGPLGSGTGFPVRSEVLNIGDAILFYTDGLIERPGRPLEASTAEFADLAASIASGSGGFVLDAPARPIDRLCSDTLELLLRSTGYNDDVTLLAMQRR
smiles,measurement,value
O=P(O)(O)O [inorganic phosphate],Ki,320 nM
